# Data reported in patent US5510379A, “Sulfonate ACAT inhibitors” (priority 1994, dated 1996).
# Like-named read-outs stand apart in the source and are kept apart here.
# Legend:
# [1] = target: T1, acyl-CoA: cholesterol acyltransferase (ACAT) (Rattus norvegicus, UniProt Q7TQM4); experiment: in vitro ACAT inhibition test in rat liver microsomes (LAI); format: biochemical
# T1 construct: tissue preparation containing rat liver microsomes; from tissue; host or cells: rat liver microsomes
# T1 sequence (Q7TQM4 1-524): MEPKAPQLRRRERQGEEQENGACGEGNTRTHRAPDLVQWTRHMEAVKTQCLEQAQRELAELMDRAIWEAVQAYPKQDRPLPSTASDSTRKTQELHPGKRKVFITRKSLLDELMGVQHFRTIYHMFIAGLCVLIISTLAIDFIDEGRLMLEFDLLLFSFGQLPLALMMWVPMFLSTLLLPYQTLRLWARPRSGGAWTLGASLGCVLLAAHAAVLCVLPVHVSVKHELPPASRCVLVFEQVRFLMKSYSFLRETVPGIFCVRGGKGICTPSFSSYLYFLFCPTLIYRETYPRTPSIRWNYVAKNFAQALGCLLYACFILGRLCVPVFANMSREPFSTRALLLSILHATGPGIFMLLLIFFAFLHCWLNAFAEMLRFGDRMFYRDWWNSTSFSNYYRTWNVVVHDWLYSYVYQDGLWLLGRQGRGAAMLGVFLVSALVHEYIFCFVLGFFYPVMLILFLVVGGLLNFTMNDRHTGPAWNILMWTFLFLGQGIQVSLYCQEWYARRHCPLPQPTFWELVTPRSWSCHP
# Description: The ability of representative compounds of the present invention to inhibit ACAT was measured using an in vitro test more fully described in F.J. Field and R.G. Salone, Biochemica et Biophysica Acta, 772:557-570 (1982). The test assesses the ability of a test compound to inhibit the acylation of cholesterol by oleic acid by measuring the amount of radiolabeled cholesterol oleate formed from radiolabeled oleic acid in a tissue preparation containing rat liver microsomes (designated LAI).
# [2] = test system: male Sprague-Dawley rats; experiment: in vivo screen APCC in cholesterol-fed rats; conditions: Rattus norvegicus, po, 30 mg/kg by gavage, high fat, high cholesterol diet overnight, versus vehicle and diet only, read-out: APCC percent change in total cholesterol (%TC) from control animals
# From the text: In an in vivo screen designated APCC, male Sprague-Dawley rats (200-225 g body weight) were randomly divided into treatment groups and dosed at 4 PM with either vehicle (CMC/Tween) or suspensions of invention compounds in vehicle. The normal chow diet was then replaced with a high fat, high cholesterol diet (5.5% peanut oil, 1.5% cholesterol, and 0.5% cholic acid). The rats consumed this diet ad libitum during the night and were sacrificed at 8 AM to obtain blood samples for cholesterol analysis using standard procedures. Statistical differences between mean cholesterol values for the same vehicle were determined using analysis of variance followed by Fisher's least significant test. The results of this trial for representative compounds of the present invention also appear in Table I as the percent change in total cholesterol (%TC) from control animals given vehicle and diet only. All compounds in the APCC test reported in Table 1 were administered by gavage at 30 mg/kg.
# [3] = rat liver microsomes, formation of radiolabeled cholesterol oleate from radiolabeled oleic acid, read-out: LAI IC50
"IC50 [1, 3] [µM]",SMILES,change in vivo at 30 mg/kg [2] [%],IC50 [1] [µM]
> 5,"CC(C)c1cc(C(C)C)c(OS(=O)(=O)CC(=O)N(Cc2ccccc2)Cc2ccccc2)c(C(C)C)c1 [Example 1, 2,4,6-Triisopropylphenyl N,N-dibenzylcarbamoylmethylsulfonate]",-7,–
0.79,"CC(C)c1cc(C(C)C)c(OS(=O)(=O)CC(=O)NC(c2ccccc2)c2ccccc2)c(C(C)C)c1 [Example 2, 2,4,6-Triisopropylphenyl N-diphenylmethylcarbamoylmethyl sulfonate]",-19,–
1.8,"CC(C)c1cccc(C(C)C)c1OS(=O)(=O)CC(=O)NC(c1ccccc1)c1ccccc1 [Example 4, 2,6-Diisopropylphenyl N-diphenylmethylcarbamoylmethyl sulfonate]",-43,–
0.027,"CC(C)c1cccc(C(C)C)c1NC(=O)CS(=O)(=O)Oc1c(C(C)C)cccc1C(C)C [Example 10, 2.6-Diisopropylphenyl N-(2,6-diisopropylphenyl)carbamoylmethylsulfonate]",-42,–

# Second part, the compound before the results:
SMILES,"IC50 [1, 3] [µM]",change in vivo at 30 mg/kg [2] [%],IC50 [1] [µM]
"CCCCCCCCCCCCNC(=O)CS(=O)(=O)Oc1c(C(C)C)cccc1C(C)C [Example 3, 2,6-Diisopropylphenyl N-dodecyl carbamoylmethyl sulfonate]",3,-3,–
"CC(C)c1cccc(C(C)C)c1OS(=O)(=O)CC(=O)O [Example 5, 2,6-Diisopropylphenoxysulfonyl acetic acid]",–,-31,> 50
CC(C)c1cc(C(C)C)c(NC(=O)CS(=O)(=O)Oc2c(C(C)C)cccc2C(C)C)c(C(C)C)c1 [Example 6],1.66,-31,–
"CSc1ccc(CN(C(=O)CS(=O)(=O)Oc2c(C(C)C)cc(C(C)C)cc2C(C)C)C(C)C)cc1 [Example 7, 2,4,6-Triisopropylphenyl N-isopropyl-N-(4-thiomethylphenylmethyl)carbamoylmethyl sulfonate]",3.6,-17,–
"CC(C)c1cccc(C(C)C)c1OC(=O)CS(=O)(=O)Oc1c(C(C)C)cccc1C(C)C [Example 8, 2,6-Diisopropylphenyl (2,6-diisopropylphenoxycarbonyl)methylsulfonate]",1.5,-21,–
CC(C)c1cc(C(C)C)c(OS(=O)(=O)CC(=O)Nc2c(C(C)C)cccc2C(C)C)c(C(C)C)c1 [Example 9],0.007,-61,–
